Measured values reported in a melting point compilation (Tetko et al.; mined from patent text by program, amines drawn as free bases though some values may be those of a salt).

Compound	melting point
NS(=O)(=O)c1cc(S(N)(=O)=O)c(C(Cl)=C(Cl)Cl)cc1NCc1ccco1	155 °C
O=c1c2cc(O)cc(O)c2cc2n1CCCC2	214 to 215 °C
O=C(O)c1ccc2occ(-c3ccccc3)c2c1	205 to 209 °C
O=c1c[n+]([O-])c2cc(Cl)c(Cl)cc2[nH]1	278 to 280 °C
NS(=O)(=O)c1ccc(CNC(=O)c2cccnc2Oc2cccc(-n3cnnn3)c2)cc1	72 to 74 °C
NCCCCCCCCCCCCCCCCCCCC(=O)O	172 to 174 °C
CC(C)N1CC(OCC2CC2)(C(F)(F)F)c2cc(Cl)ccc2NC1=O (configuration not stated)	170 °C
Cc1cc(C(=O)N2Cc3cccn3Cc3ccccc32)ccc1NC(=O)c1ccccc1C	125 to 130 °C
CCOC(=O)c1cccc(CNC(=O)CCCCCNC(=O)OC(C)(C)C)c1O	120 to 121 °C
CC(O)c1cccc(C=Cc2ccc3cc(F)ccc3n2)c1 (configuration not stated)	107 to 109 °C
CCN(CC)C(=O)c1c(-c2ccccc2)ccc2cc(-c3ccc(OC)cc3)ccc12	147 to 148 °C
COc1ccc(C2=CC(=O)CCC2)cc1	83 to 85 °C
COc1cc2ncnc(Nc3nccc4ccccc34)c2cc1OC	198 to 199 °C
NS(=O)(=O)c1ccc(-n2nc(C=NOCc3ccccc3)cc2-c2ccc(Cl)cc2)cc1	158 to 159 °C
O=C(C=Cc1ccc(C(F)(F)F)cc1)N1CCCCC1CO (configuration not stated)	139 to 140 °C
O=[N+]([O-])c1cc(Cl)c(O)cc1OCCO	159 °C
CC(C)(C)C(=O)Nc1cc2c(O)n(I)cnc-2n1	> 240 °C
CCOC(=O)CC[C@H](NC(=O)/C=C/C(=O)c1ccccc1)C(=O)OCC	83 to 85 °C
COC1OC(COCc2ccccc2)C(OCc2ccccc2)C(NC(C)=O)C1OCc1ccccc1 (configuration not stated)	147 to 151 °C
Nc1c(-c2ccc(Cl)cc2)nc2c(Cl)cc(Cl)cc2c1C(=O)O	260 to 261 °C
CCOC(=O)C1(C(=O)Nc2ccc(Cl)cc2CC)CC1	77 to 80 °C
CCc1nc2c([nH]1)c(=S)n(CC)c(=O)n2CC(C)CC (configuration not stated)	115 to 117 °C
COc1ccc(C(=O)Nc2c(Cl)cncc2Cl)c2c3ccccc3n(Cc3ccccc3)c12	215 to 217 °C
N#Cc1ccc([C@@H]2CN(Cc3ccccc3)C[C@@]23NC(=O)N(c2cc(Cl)cc(Cl)c2)C3=O)cc1 (relative stereo)	200 °C
O=C1CCCN1C(=O)Oc1ccccc1Cl	92 to 93 °C
Oc1ccc(C2CCCN2CCN2CCOCC2)cc1 (configuration not stated)	107 to 108 °C

Compound	melting point
Cc1ccc(-c2ccc3c(c2)C=C(C(=O)Nc2ccc(CN(C)C4CCOCC4)cc2)CCO3)s1	129 to 130 °C
COc1ccc2c(c1)C(=O)c1ccc(Nc3ccc(F)c(F)c3F)cc1CC2	128 °C
O=C(Nc1ccc(Cl)c(C(=O)Nc2ccccc2)c1O)Nc1cccc(Cl)c1Cl	244 to 245 °C
CCOC(=O)C(C)ON=C(C)C (configuration not stated)	59 to 61 °C
O=C(c1ccccc1)c1ccc(CO)cc1	59 to 61 °C
N#Cc1c(N)cccc1N1CCCC1	112 to 114 °C
CCN1CCCC1CNC(=O)c1c(OC)c(Cl)cc(Cl)c1OC (configuration not stated)	120 to 121 °C
COC(=O)C(=C1NCCCO1)[N+](=O)[O-]	132 to 133 °C
COC(=O)C1CCN2C(=O)C(=O)c3cc(Br)cc1c32 (configuration not stated)	150 to 151 °C
COCCCn1cc(Br)c2c3c(c(-c4ccccc4Cl)cc21)C(=O)NC3=O	149 to 151 °C
CCCCCn1cc(CCCC)n(Cc2ccc(-c3ccccc3-c3nnn[nH]3)nc2)c1=O	162 to 164 °C
CNCC1Cc2cccc(-c3c(C)cccc3C)c2O1 (configuration not stated)	> 250 °C
CN1CCC(N2C(=O)CN=C(c3ccccc3F)c3cc(Cl)ccc32)CC1	145 to 146 °C
COc1cc(C(=S)N2CCNCC2)cc(OC)c1OC	116 to 118 °C
C[Si](Cl)(Cl)C(c1ccccc1)(c1ccccc1)c1ccccc1	170 to 172 °C
Cc1cc(=O)[nH]nc1-c1ccc2c(c1)CCC1(CCN(C3CCC3)CC1)O2	270 to 272 °C
CC(C)CC(=O)N[C@@H](CC(C)C)C(=O)N[C@@H](Cc1ccccc1)C(=O)CSCc1ccco1	108 to 115 °C
CCCNC(=O)NCCc1c[nH]c2ccc(OC)cc12	79 to 80 °C
CN1Cc2c(-c3noc(CCl)n3)ncn2-c2cccc(F)c2C1=O	206 °C
CC1(C)CCC(C)(C)c2cc3cc(-c4ccc(C(=O)O)cc4)ccc3cc21	282 °C
CC(C)(C)OC(=O)CON1C(=O)c2ccccc2C1=O	140 to 141 °C
CCOC(=O)c1c2ccc(Cl)cc2c(-c2ccccc2)n1CCCO	94 to 96 °C
FC(F)(F)c1nnnn1-c1cccc2ccccc12	108 °C
CCc1nc(-c2ccccc2Cl)nn1C	44 °C
O=C(O)c1cccc(Oc2cccc(-c3nn(Cc4ccc(C(F)(F)P(=O)(O)O)c(Br)c4)c(=Nc4ccc(Cl)c(Cl)c4)s3)c2)c1	210 to 215 °C
Cc1nc(=O)n(-c2cc(C(=O)OC(C)C)c(Cl)cc2F)c(N)c1C#N	255 to 257 °C
